Results as given in patent US8354414B2, “Substituted bicyclic pyrimidines” (Cephalon, Inc, priority 2006, dated 2013).
Structures can show the parent of a compound that is named as a salt. Where two headings read alike, the source gives them in different places.

Columns and labels:
CDK5/GST-p25 = molecular target: T1, CDK5/GST-p25 (Homo sapiens, UniProt Q00535); test: Inhibition of CDK5/GST-p25 kinase activity (ELISA with time-resolved fluorescence readout); format: biochemical; details: class symbols
T1 construct: The final construct, encoding for full-length human CDK5; made in house; host or cells: Sf21 insect cells (baculovirus co-infection)
T1 sequence (Q00535 whole entry): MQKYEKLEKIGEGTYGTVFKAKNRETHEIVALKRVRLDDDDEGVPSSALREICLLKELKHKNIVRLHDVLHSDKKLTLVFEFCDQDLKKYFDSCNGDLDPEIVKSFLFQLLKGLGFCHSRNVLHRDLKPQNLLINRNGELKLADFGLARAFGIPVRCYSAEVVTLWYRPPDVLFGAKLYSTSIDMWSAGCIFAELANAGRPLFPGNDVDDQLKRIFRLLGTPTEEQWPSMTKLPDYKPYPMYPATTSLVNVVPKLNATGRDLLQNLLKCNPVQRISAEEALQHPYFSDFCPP
T1 sequence (Q15078 108-307 partner limits assumed): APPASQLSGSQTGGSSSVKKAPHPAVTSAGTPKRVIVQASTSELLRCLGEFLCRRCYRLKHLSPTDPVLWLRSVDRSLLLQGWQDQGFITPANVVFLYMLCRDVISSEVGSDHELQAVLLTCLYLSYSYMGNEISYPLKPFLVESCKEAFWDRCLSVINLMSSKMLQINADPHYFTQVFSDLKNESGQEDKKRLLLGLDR
Summary of the method: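 The substrate, GST-Rb(773-928), was immobilised on plates and phosphorylated for 20 min at 37 °C by 2 ng/ml CDK5/GST-p25 in HEPES pH 7.2 with 10 µM ATP and 10 mM MgCl2. Both proteins were human and co-expressed in insect cells. Ser-780 phosphorylation was read by europium time-resolved fluorescence and converted to IC50.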

His6-GSK-3β = molecular target: T2, His6-GSK-3β (Homo sapiens, UniProt P49841); test: Inhibition of His6-GSK-3β kinase activity (ELISA-based format, time-resolved fluorescence readout); format: biochemical; details: read-out: GSK3β IC50
T2 construct: made in house; host or cells: Sf21 insect cells (baculovirus)
T2 sequence (P49841 2-419): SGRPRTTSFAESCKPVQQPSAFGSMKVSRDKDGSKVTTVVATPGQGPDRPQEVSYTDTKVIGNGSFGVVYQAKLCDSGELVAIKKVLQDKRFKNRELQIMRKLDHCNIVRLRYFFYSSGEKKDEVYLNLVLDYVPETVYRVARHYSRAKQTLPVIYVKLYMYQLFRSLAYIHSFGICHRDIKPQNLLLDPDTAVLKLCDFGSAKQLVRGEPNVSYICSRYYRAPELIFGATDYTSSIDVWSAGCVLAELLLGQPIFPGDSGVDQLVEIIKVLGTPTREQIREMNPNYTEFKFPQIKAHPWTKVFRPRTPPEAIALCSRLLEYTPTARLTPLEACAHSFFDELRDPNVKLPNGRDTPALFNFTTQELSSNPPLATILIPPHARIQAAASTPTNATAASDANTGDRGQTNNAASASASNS
Summary of the method: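 Plate-bound recombinant GST-Rb substrate was phosphorylated for 30 min at 37° C by baculovirus-expressed His6-GSK-3β (200 ng/ml) at 20 μM ATP, 10 mM MgCl2, 2.5% DMSO. Europium time-resolved fluorescence of anti-phospho-Ser780 Rb signal gave inhibition, fitted to IC50.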

| Compound | IC50 (CDK5/GST-p25) [nM] | IC50 (His6-GSK-3β; numeric bounds) [nM] | IC50 (His6-GSK-3β; class symbols) [nM] |
| --- | --- | --- | --- |
| O=C1Nc2ccc(Br)cc2C1c1nc(Cl)nc2nn(C3CCCC3)cc12 (stereo not drawn) [Example 182, 5-Bromo-3-(6-chloro-2-cyclopentyl-2-H-pyrazolo[3,4-d]pyrimidin-4-yl)-1,3-dihydro-indol-2-one] | > 10000 | > 3000 |  |
| CCCn1cc2c(C3C(=O)Nc4ccc(C#N)cc43)nc(NCc3cccnc3)nc2n1 (stereo not drawn) [Example 184, 2-Oxo-3-{2-propyl-6-[(pyridin-3-ylmethyl)-amino]-2H-pyrazolo[3,4-d]pyrimidin-4-yl}-2,3-dihydro-1H-indole-5-carbonitrile] | < 300 |  | < 300 |
| CCCn1cc2c(C3C(=O)Nc4ccc(Br)cc43)nc(NCCC(F)(F)F)nc2n1 (stereo not drawn) [Example 192, 5-Bromo-3-[2-propyl-6-(3,3,3-trifluoro-propylamino)-2H-pyrazolo[3,4-d]pyrimidin-4-yl]-1,3-dihydro-indol-2-one] | < 300 |  | < 300 |
| C=CCNc1nc(C2C(=O)Nc3ccc(Br)cc32)c2cn(CCC)nc2n1 (stereo not drawn) [Example 193, 3-(6-Allylamino-2-propyl-2H-pyrazolo[3,4-d]pyrimidin-4-yl)-5-bromo-1,3-dihydro-indol-2-one] | < 300 |  | < 300 |
| CCCn1cc2c(C3C(=O)Nc4ccc(Br)cc43)nc(NCCCNC)nc2n1 (stereo not drawn) [Example 201, 5-Bromo-3-[6-(3-methylamino-propylamino)-2-propyl-2H-pyrazolo [3,4-d]pyrimidin-4-yl]-1,3-dihydro-indol-2-one hydrochloride] | < 300 |  | < 300 |
| CCOCCn1cc2c(C3C(=O)Nc4ccc(Cl)cc43)nc(NCCc3cccnc3)nc2n1 (stereo not drawn) [Example 212, 5-Chloro-3-[2-(2-ethoxy-ethyl)-6-(2-pyridin-3-yl-ethylamino)-2H-pyrazolo [3,4-d]pyrimidin-4-yl]-1,3-dihydro-indol-2-one] | < 300 |  | < 300 |
| CCOCCn1cc2c(C3C(=O)Nc4ccc(Cl)cc43)nc(NCc3cccnc3)nc2n1 (stereo not drawn) [Example 213, 5-Chloro-3-{2-(2-ethoxy-ethyl)-6[(pyridin-3-ylmethyl)-amino]-2H-pyrazolo[3,4-d]pyrimidin-4-yl}-1,3-dihydro-indol-2-one] | < 300 |  | < 300 |
| CCOCCn1cc2c(C3C(=O)Nc4ccc(Cl)cc43)nc(NCCCNC)nc2n1 (stereo not drawn) [Example 215, 5-Chloro-3-[2-(2-ethoxy-ethyl)-6-(3-methylamino-propylamino)-2H-pyrazolo [3,4-d]pyrimidin-4-yl]-1,3-dihydro-indol-2-one] | 300 to 3000 |  | 300 to 3000 |
| CNCCCNc1nc(C2C(=O)Nc3ccc(Br)cc32)c2cn(CCOC)nc2n1 (stereo not drawn) [Example 226, 5-Bromo-3-[2-(2-methoxy-ethyl)-6-(3-methylamino-propylamino)-2H-pyrazolo[3,4-d]pyrimdin-4-yl]-1,3-dihydro-indol-2-one] | < 300 |  | < 300 |
| COCCn1cc2c(C3C(=O)Nc4ccc(Br)cc43)nc(NCCC3CCNCC3)nc2n1 (stereo not drawn) [Example 227, 5-Bromo-3-[2-(2-methoxy-ethyl)-6-(2-piperidin-4-yl-ethylamino)-2H-pyrazolo[3,4-d]pyrimidin-4-yl]-1,3-dihydro-indol-2-one] | < 300 |  | < 300 |
| COCCn1cc2c(C3C(=O)Nc4ccc(Br)cc43)nc(NCCC3CCCNC3)nc2n1 (stereo not drawn) [Example 228, 5-Bromo-3-[2-(2-methoxy-ethyl)-6-(2-piperidin-3-yl-ethylamino)-2H-pyrazolo[3,4-d]pyrimidin-4-yl]-1,3-dihydro-indol-2-one] | < 300 |  | < 300 |
| CNCCCNc1nc(C2C(=O)Nc3ccc(C(F)(F)F)cc32)c2cn(C3CCCC3)nc2n1 (stereo not drawn) [Example 253, 3-[2-Cyclopentyl-6-(3-methylamino-propylamino)-2H-pyrazolo [3,4-d]pyrimidin-4-yl]-5-trifluoromethyl-1,3-dihydro-indol-2-one hydrochloride salt] | 300 to 3000 |  | < 300 |
| CC(C)Cn1cc2c(C3C(=O)Nc4ccc(Cl)cc43)nc(Cl)nc2n1 (stereo not drawn) [Example 273, 5-Chloro-3-(6-chloro-2-isobutyl-2H-pyrazolo [3,4-d]pyrimidin-4-yl)-1,3-dihydro-indol-2-one] | > 10000 | > 3000 |  |
| CCCCN1CCC(CNc2nc(C3C(=O)Nc4ccc(Cl)cc43)c3cn(C4CCCC4)nc3n2)CC1 (stereo not drawn) [Example 275, 3-{6-[(1-Butyl-piperidin-4-ylmethyl)-amino]-2-cyclopentyl-2H-pyrazolo[3,4-d]pyrimidin-4-yl}-5-chloro-1,3-dihydro-indol-2-one] | > 10000 |  | < 300 |
| C=CCNc1nc(C2C(=O)Nc3ccc(Br)cc32)c2cn(C)nc2n1 (stereo not drawn) [Example 301, 3-(6-Allylamino-2-methyl-2H-pyrazolo[3,4-d]pyrimidin-4-yl)-5-bromo-1,3-dihydro-indol-2-one] | < 300 |  | < 300 |
| Cn1cc2c(C3C(=O)Nc4ccc(Br)cc43)nc(NCc3ccncc3)nc2n1 (stereo not drawn) [Example 302, 5-Bromo-3-{2-methyl-6-[(pyridin-4-ylmethyl)-amino]-2H-pyrazolo[3,4-d]pyrimidin-4-yl}-1,3-dihydro-indol-2-one] | < 300 |  | < 300 |
| Cn1cc2c(C3C(=O)Nc4ccc(Br)cc43)nc(NCCc3cccnc3)nc2n1 (stereo not drawn) [Example 305, 5-Bromo-3-[2-methyl-6-(2-pyridin-3-yl-ethylamino)-2H-pyrazolo [3,4-d]pyrimidin-4-yl]-1,3-dihydro-indol-2-one] | < 300 |  | < 300 |
| CNCCCNc1nc(C2C(=O)Nc3ccc(Br)cc32)c2cn(C)nc2n1 (stereo not drawn) [Example 306, 5-Bromo-3-[2-methyl-6-(3-methylamino-propylamino)-2H-pyrazolo [3,4-d]pyrimidin-4-yl]-1,3-dihydro-indol-2-one] | < 300 |  | 300 to 3000 |
| CCCn1cc2c(C3C(=O)Nc4ccc(C)cc43)nc(NCCN(C)C)nc2n1 (stereo not drawn) [Example 309, 3-[6-(2-Dimethylamino-ethylamino)-2-propyl-2H-pyrazolo[3,4-d]pyrimidin-4-yl]-5-methyl-1,3-dihydro-indol-2-one] | 300 to 3000 |  | 300 to 3000 |
| CCCn1cc2c(C3C(=O)Nc4ccc(C)cc43)nc(NCCCOC)nc2n1 (stereo not drawn) [Example 310, 3-[6-(3-Methoxy-propylamino)-2-propyl-2H-pyrazolo[3,4-d]pryrimidin-4-yl]-5-methyl-1,3-dihydro-indol-2-one] | 300 to 3000 |  | 300 to 3000 |
| O=C1Nc2ccc(Br)cc2C1c1nc(Cl)nc2c1CCC2 (stereo not drawn) [Example 314, 5-Bromo-3-(2-chloro-6,7-dihydro-5H-cyclopentapyrimidin-4-yl)-1,3-dihydro-indol-2-one] | > 10000 |  | > 10000 |
| O=C1Nc2ccc(F)cc2C1c1nc(Cl)nc2c1CCC2 (stereo not drawn) [Example 315, 3-(2-Chloro-6,7-dihydro-5H-cyclopentapyrimidin-4-yl)-5-fluoro-1,3-dihydro-indol-2-one] | > 10000 |  | > 10000 |
| O=C1Nc2ccc(Cl)cc2C1c1nc(Cl)nc2c1CCC2 (stereo not drawn) [Example 316, 5-Chloro-3-(2-chloro-6,7-dihydro-5H-cyclopentapyrimidin-4-yl)-1,3-dihydro-inodol-2-one] | > 10000 |  | > 10000 |
| N#Cc1ccc2c(c1)C(c1nc(Cl)nc3c1CCC3)C(=O)N2 (stereo not drawn) [Example 317, 3-(2-Chloro-6,7-dihydro-5H-cyclopentapyrimidin-4-yl)-2-oxo-2,3-dihydro-1H-indole-5-carbonitrile] | > 10000 |  | > 10000 |
